Reference: article PMC8592951, “9-Methyl-β-carboline inhibits monoamine oxidase activity and stimulates the expression of neurotrophic factors by astrocytes” (Journal of Neural Transmission, 2020)

Experiments:
MAO-A = biological target: T1, MAO-A (Homo sapiens, UniProt P21397); experiment: MAO-Glo luminescence enzyme activity assay; format: biochemical
T1 construct: gene MAOA
T1 sequence (P21397 1-527): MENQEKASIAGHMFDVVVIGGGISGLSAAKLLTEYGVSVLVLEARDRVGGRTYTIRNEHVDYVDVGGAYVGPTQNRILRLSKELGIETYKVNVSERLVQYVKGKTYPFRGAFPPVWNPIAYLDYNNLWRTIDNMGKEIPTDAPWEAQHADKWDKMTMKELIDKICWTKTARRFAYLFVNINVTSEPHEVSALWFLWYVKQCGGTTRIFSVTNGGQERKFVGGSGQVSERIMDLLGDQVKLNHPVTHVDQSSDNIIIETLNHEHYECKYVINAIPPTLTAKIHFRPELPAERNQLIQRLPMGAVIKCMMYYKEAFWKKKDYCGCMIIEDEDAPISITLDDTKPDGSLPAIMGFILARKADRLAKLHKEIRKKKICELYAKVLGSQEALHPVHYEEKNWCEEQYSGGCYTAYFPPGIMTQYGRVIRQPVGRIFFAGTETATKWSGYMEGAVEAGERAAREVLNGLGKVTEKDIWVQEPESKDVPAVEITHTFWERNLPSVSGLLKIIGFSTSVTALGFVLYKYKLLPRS

MAO-B = biological target: T2, MAO-B (Homo sapiens, UniProt P27338); experiment: MAO-Glo luminescence enzyme activity assay with purchased human MAO-B; format: biochemical
T2 construct: gene MAOB
T2 sequence (P27338 2-520): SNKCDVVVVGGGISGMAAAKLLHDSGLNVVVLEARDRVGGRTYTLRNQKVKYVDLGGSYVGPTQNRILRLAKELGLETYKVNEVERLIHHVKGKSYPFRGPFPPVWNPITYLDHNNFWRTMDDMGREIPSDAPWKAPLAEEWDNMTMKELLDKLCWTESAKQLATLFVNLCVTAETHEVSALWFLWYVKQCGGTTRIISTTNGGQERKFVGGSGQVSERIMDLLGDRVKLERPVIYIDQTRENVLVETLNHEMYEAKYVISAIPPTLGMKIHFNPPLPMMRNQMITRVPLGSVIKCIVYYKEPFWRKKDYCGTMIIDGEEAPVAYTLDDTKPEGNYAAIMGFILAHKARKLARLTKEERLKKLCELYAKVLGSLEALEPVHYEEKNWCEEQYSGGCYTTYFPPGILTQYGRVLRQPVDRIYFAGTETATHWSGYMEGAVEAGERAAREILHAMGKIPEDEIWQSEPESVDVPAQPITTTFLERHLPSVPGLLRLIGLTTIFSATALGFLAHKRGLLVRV

SMILES: Cn1c2ccccc2c2ccncc21 [9-methyl-β-carboline]
- IC50 (MAO-A): 1 µM
- IC50 (MAO-B): 15.5 µM
